Assay results as given in paper PMC7289955, “The Role of Dopamine in the Stimulant Characteristics of Novel Psychoactive Substances (NPS)—Neurobiological and Computational Assessment Using the Case of Desoxypipradrol (2-DPMP)” (Frontiers in Pharmacology, 2020).

Molecular target: T1, dopamine transporter (DAT) (Rattus norvegicus, UniProt P23977)
T1 construct: gene Slc6a3; native DAT in rat brain sections (nucleus accumbens shell and caudate-putamen)
Experiment: […]RTI-121 displacement, quantitative autoradiography on rat brain sections

T1 sequence (P23977 whole entry): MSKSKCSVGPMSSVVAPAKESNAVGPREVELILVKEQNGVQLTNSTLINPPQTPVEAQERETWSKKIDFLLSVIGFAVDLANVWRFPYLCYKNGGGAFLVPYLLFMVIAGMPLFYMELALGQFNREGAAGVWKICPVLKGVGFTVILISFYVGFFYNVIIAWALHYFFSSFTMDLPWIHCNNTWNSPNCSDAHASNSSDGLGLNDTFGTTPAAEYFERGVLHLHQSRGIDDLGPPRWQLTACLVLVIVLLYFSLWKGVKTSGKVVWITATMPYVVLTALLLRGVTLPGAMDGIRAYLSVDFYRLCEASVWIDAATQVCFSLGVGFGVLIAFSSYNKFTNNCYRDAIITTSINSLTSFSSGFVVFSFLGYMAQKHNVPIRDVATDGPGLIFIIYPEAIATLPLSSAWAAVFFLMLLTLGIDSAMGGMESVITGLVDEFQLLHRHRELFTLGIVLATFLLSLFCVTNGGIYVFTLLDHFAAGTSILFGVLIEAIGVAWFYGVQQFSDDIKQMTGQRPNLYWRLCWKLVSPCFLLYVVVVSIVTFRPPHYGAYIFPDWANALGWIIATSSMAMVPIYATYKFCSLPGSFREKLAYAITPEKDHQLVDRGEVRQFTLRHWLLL

## c1ccc(C(c2ccccc2)C2CCCCN2)cc1 (stereo not shown) [2-DPMP, 2-diphenylmethylpiperidine]
  IC50: 0.565 µM
